Experimental data: patent US9169254B2, “Spiroimidazolone derivative” (Chugai Seiyaku Kabushiki Kaisha, priority 2009, dated 2015)

Target: T1, human PTH1 receptor (Homo sapiens, UniProt Q03431)
T1 sequence (Q03431 27-593): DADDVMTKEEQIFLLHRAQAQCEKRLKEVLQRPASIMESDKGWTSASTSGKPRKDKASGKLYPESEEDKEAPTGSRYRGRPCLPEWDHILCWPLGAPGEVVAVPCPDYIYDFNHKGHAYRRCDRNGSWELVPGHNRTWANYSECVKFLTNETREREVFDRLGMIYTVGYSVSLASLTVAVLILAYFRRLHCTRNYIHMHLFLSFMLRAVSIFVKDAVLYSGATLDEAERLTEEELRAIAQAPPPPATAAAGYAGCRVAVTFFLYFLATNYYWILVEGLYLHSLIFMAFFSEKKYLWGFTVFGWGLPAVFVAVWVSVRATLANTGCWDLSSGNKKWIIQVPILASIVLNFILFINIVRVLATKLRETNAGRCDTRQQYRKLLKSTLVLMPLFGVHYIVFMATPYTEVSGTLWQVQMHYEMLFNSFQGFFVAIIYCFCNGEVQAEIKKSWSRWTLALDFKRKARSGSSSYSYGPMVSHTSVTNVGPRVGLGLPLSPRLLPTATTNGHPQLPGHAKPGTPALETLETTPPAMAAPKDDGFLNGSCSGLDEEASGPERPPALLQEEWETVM
Experiment: In vitro cAMP signal activity in HKRK-B7 cells (LLC-PK1 cells overexpressing the human PTH1 receptor)
Format: cell-based
Conditions: HKRK-B7 cells; compound at 1×10^−3 M; cAMP produced as percentage of that produced by hPTH(1-34) at 100 nM

Structure (SMILES)	cAMP production activity (%)
Cc1cc(C(=O)N(C)C)ccc1CCS(=O)(=O)N1CCC2(CC1)N=C(c1ccc3ncsc3c1)NC2=O [Compound 143, 4-[2-(2-benzothiazol-6-yl-4-oxo-1,3,8-triaza-spiro[4.5]dec-1-ene-8-sulfonyl)-ethyl]-3,N,N-trimethyl-benzamide]	4.5%
COc1ccc(C2=NC3(CCN(S(=O)(=O)CCc4ccc(C(=O)N(C)C)cc4C)CC3)C(=O)N2)cc1C(F)(F)F [Compound 144, 4-{2-[2-(4-methoxy-3-trifluoromethyl-phenyl)-4-oxo-1,3,8-triaza-spiro[4.5]dec-1-ene-8-sulfonyl]-ethyl}-3,N,N-trimethyl-benzamide]	59%
CC(=O)Nc1ccc(CCS(=O)(=O)N2CCC3(CC2)N=C(c2cccc(C)c2)NC3=O)c(C)c1 [Compound 145, N-{3-Methyl-4-[2-(4-oxo-2-m-tolyl-1,3,8-triaza-spiro[4.5]dec-1-ene-8-sulfonyl)-ethyl]-phenyl}-acetamide]	129%
CC(=O)Nc1ccc(CCS(=O)(=O)N2CCC3(CC2)N=C(c2cccc(C)c2C)NC3=O)c(C)c1 [Compound 146, N-(4-{2-[2-(2,3-dimethyl-phenyl)-4-oxo-1,3,8-triaza-spiro[4.5]dec-1-ene-8-sulfonyl]-ethyl}-3-methyl-phenyl)-acetamide]	122%
CC(=O)Nc1ccc(CCS(=O)(=O)N2CCC3(CC2)N=C(c2cccc(Cl)c2Cl)NC3=O)c(C)c1 [Compound 147, N-(4-{2-[2-(2,3-dichloro-phenyl)-4-oxo-1,3,8-triaza-spiro[4.5]dec-1-ene-8-sulfonyl]-ethyl}-3-methyl-phenyl)-acetamide]	105%
CC(=O)Nc1ccc(CCS(=O)(=O)N2CCC3(CC2)N=C(C2CCC(C)CC2)NC3=O)c(C)c1 (stereo not shown) [Compound 148, N-(3-methyl-4-{2-[2-(4-methyl-cyclohexyl)-4-oxo-1,3,8-triaza-spiro[4.5]dec-1-ene-8-sulfonyl]-ethyl}-phenyl)-acetamide]	79%
CC(=O)N(CCO)c1ccc(CCS(=O)(=O)N2CCC3(CC2)N=C(c2cccc(OC(F)(F)F)c2)NC3=O)c(C)c1 [Compound 149, N-(2-Hydroxy-ethyl)-N-(3-methyl-4-{2-[4-oxo-2-(3-trifluoromethoxy-phenyl)-1,3,8-triaza-spiro[4.5]dec-1-ene-8-sulfonyl]-ethyl}-phenyl)-acetamide]	56%
CC(=O)OC[C@H](CN(C(C)=O)c1ccc(CCS(=O)(=O)N2CCC3(CC2)N=C(c2cccc(C(F)(F)F)c2)NC3=O)c(C)c1)OC(C)=O [Compound 150, Acetic acid (S)-1-acetoxymethyl-2-[acetyl-(3-methyl-4-{2-[4-oxo-2-(3-trifluoromethyl-phenyl)-1,3,8-triaza-spiro[4.5]dec-1-ene-8-sulfonyl]-ethyl}-phenyl)-amino]-ethyl ester]	62%
CC(=O)OC[C@H](CN(C(C)=O)c1ccc(CCS(=O)(=O)N2CCC3(CC2)N=C(c2ccc(C(F)(F)F)cc2)NC3=O)c(C)c1)OC(C)=O [Compound 151, acetic acid (S)-1-acetoxymethyl-2-[acetyl-(3-methyl-4-{2-[4-oxo-2-(4-trifluoromethyl-phenyl)-1,3,8-triaza-spiro[4.5]dec-1-ene-8-sulfonyl]-ethyl}-phenyl)-amino]-ethyl ester]	53%
CC(=O)OC[C@H](CN(C(C)=O)c1ccc(CCS(=O)(=O)N2CCC3(CC2)N=C(c2ccc(OC(F)(F)F)cc2)NC3=O)c(C)c1)OC(C)=O [Compound 152, acetic acid (S)-1-acetoxymethyl-2-[acetyl-(3-methyl-4-{2-[4-oxo-2-(4-trifluoromethoxy-phenyl)-1,3,8-triaza-spiro[4.5]dec-1-ene-8-sulfonyl]-ethyl}-phenyl)-amino]-ethyl ester]	47%
CC(=O)OC[C@H](CN(C(C)=O)c1ccc(CCS(=O)(=O)N2CCC3(CC2)N=C(c2ccc(F)c(C(F)(F)F)c2)NC3=O)c(C)c1)OC(C)=O [Compound 153, acetic acid (S)-1-acetoxymethyl-2-[acetyl-(4-{2-[2-(4-fluoro-3-trifluoromethyl-phenyl)-4-oxo-1,3,8-triaza-spiro[4.5]dec-1-ene-8-sulfonyl]-ethyl}-3-methyl-phenyl)-amino]-ethyl ester]	59%
Cc1cc(NC[C@H](O)CO)ccc1CCS(=O)(=O)N1CCC2(CC1)N=C(c1ccc(C(F)(F)F)cc1)NC2=O [Compound 154, 8-{2-[4-((S)-2,3-Dihydroxy-propylamino)-2-methyl-phenyl]-ethanesulfonyl}-2-(4-trifluoromethyl-phenyl)-1,3,8-triaza-spiro[4.5]dec-1-en-4-one]	82%
Cc1cc(NC[C@H](O)CO)ccc1CCS(=O)(=O)N1CCC2(CC1)N=C(c1cccc(C(F)(F)F)c1)NC2=O [Compound 155, 8-{2-[4-((S)-2,3-dihydroxy-propylamino)-2-methyl-phenyl]-ethanesulfonyl}-2-(3-trifluoromethyl-phenyl)-1,3,8-triaza-spiro[4.5]dec-1-en-4-one]	45%
Cc1cc(NC[C@H](O)CO)ccc1CCS(=O)(=O)N1CCC2(CC1)N=C(c1ccc(OC(F)(F)F)cc1)NC2=O [Compound 156, 8-{2-[4-((S)-2,3-Dihydroxy-propylamino)-2-methyl-phenyl]-ethanesulfonyl}-2-(4-trifluoromethoxy-phenyl)-1,3,8-triaza-spiro[4.5]dec-1-en-4-one]	64%
Cc1cc(NC[C@H](O)CO)ccc1CCS(=O)(=O)N1CCC2(CC1)N=C(c1cccc(Cl)c1)NC2=O [Compound 157, 2-(3-chloro-phenyl)-8-{2-[4-((S)-2,3-dihydroxy-propylamino)-2-methyl-phenyl]-ethanesulfonyl}-1,3,8-triaza-spiro[4.5]dec-1-en-4-one]	70%
Cc1cc(NC[C@H](O)CO)ccc1CCS(=O)(=O)N1CCC2(CC1)N=C(c1ccc(Cl)cc1)NC2=O [Compound 158, 2-(4-chloro-phenyl)-8-{2-[4-((S)-2,3-dihydroxy-propylamino)-2-methyl-phenyl]-ethanesulfonyl}-1,3,8-triaza-spiro[4.5]dec-1-en-4-one]	62%
Cc1cc(NCCO)ccc1CCS(=O)(=O)N1CCC2(CC1)N=C(c1cccc(OC(F)(F)F)c1)NC2=O [Compound 159, 8-{2-[4-(2-Hydroxy-ethylamino)-2-methyl-phenyl]-ethanesulfonyl}-2-(3-trifluoromethoxy-phenyl)-1,3,8-triaza-spiro[4.5]dec-1-en-4-one]	96%
Cc1cc(NCCO)ccc1CCS(=O)(=O)N1CCC2(CC1)N=C(c1cccc(C(F)(F)F)c1)NC2=O [Compound 160, 8-{2-[4-(2-hydroxy-ethylamino)-2-methyl-phenyl]-ethanesulfonyl}-2-(3-trifluoromethyl-phenyl)-1,3,8-triaza-spiro[4.5]dec-1-en-4-one]	65%
Cc1cc(NCCO)ccc1CCS(=O)(=O)N1CCC2(CC1)N=C(c1ccc(C(F)(F)F)cc1)NC2=O [Compound 161, 8-{2-[4-(2-hydroxy-ethylamino)-2-methyl-phenyl]-ethanesulfonyl}-2-(4-trifluoromethyl-phenyl)-1,3,8-triaza-spiro[4.5]dec-1-en-4-one]	69%
